Consider 74 compounds from patent US7557213B2, “Substituted quinolones and methods of use” (ChemoCentryx, Inc., priority 2005, dated 2009).

pIC50: −log10 of the molar value. Some results are limits rather than exact numbers.

In the test the target is T1, CCXCKR2 receptor (Homo sapiens, UniProt P25106).
T1 construct: expressed in transfected cells; host or cells: MDA-MB-435S transfected with pcDNA3.1(+)-hRDC1 and/or MCF-7 (endogenous receptor)
T1 sequence (P25106 whole entry): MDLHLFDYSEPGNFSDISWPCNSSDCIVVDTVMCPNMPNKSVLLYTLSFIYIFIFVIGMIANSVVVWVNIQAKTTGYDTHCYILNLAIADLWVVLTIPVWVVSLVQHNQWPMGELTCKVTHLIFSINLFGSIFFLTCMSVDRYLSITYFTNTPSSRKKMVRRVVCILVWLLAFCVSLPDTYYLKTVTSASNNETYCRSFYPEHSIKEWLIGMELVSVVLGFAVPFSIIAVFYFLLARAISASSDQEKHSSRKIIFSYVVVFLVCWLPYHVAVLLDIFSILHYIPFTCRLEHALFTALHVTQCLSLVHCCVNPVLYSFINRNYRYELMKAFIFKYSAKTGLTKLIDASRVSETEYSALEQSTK
Put plainly: Displacement of 125I-labeled SDF-1 from the CCXCKR2 receptor on MCF-7 and/or CCXCKR2-transfected MDA-MB-435S cells (radioligand binding, filtration). The note with it: 125I SDF-1, 3 hr at 4° C., MCF-7 and/or MDA-MB-435S cells; read-out: Activity (concentration displacing at least 50% of the SDF-1 from the CCXCKR2 receptor). A general note: Loss of bound radioactivity is the signal in a displacement assay; it reports binding, not function.
As to `CSc1cccc(Cn2cc(C(=O)c3ccc(C)c(C)c3)c(=O)c3ccccc32)n1` [Example 77], the pIC50 was over 7.00.
In the case of `Cc1ccc(C(=O)c2cn(Cc3cccc(S(C)(=O)=O)n3)c3ccccc3c2=O)cc1C` [Example 78], the pIC50 is 6.30 to 7.00.
Turning to `Cc1ccc(C(=O)c2cn(Cc3cccc(C(F)(F)F)n3)c3ccccc3c2=O)nc1C` [Example 79], the pIC50 was over 7.00.
For the compound `Cc1ccc(C(=O)c2cn(Cc3cccc(C#N)n3)c3ccccc3c2=O)nc1C` [Example 80], the pIC50 was over 7.00.
Turning to `Cc1ccc(C(=O)c2cn(Cc3cccc(C#N)n3)c3ccccc3c2=O)cc1C` [Example 81], the pIC50 is over 7.00.
`Cc1cc(C(=O)c2cn(Cc3cccc(C(F)(F)F)n3)c3ccccc3c2=O)cnc1C` [Example 82]: the pIC50 was over 7.00.
Consider `Cc1ccc(C(=O)c2cn(Cc3cccc(C(=O)O)n3)c3ccccc3c2=O)cc1C` [Example 83], for which the pIC50 was 4.70 to 6.30.
Consider `Cc1cc(C(=O)c2cn(C(C)c3cccc(Br)n3)c3ccccc3c2=O)cnc1C` (centres unmarked) [Example 84], for which the pIC50 is 4.70 to 6.30.
With `Cc1cc(C(=O)c2cn(Cc3cccc(C#N)n3)c3ccccc3c2=O)cnc1C` [Example 85], the pIC50 was over 7.00.
In the case of `Cc1ccc(C(=O)c2cn(Cc3cccc(C(N)=O)n3)c3ccccc3c2=O)cc1C` [Example 86] it was 4.70 to 6.30; in that of `Cc1ccc(C(=O)c2cn(Cc3cccc(NC(=O)C(F)(F)F)n3)c3ccccc3c2=O)cc1C` [Example 87], over 7.00.
For `Cc1ccc(C(=O)c2cn(Cc3cccc(Br)[n+]3[O-])c3ccccc3c2=O)cc1C` [Example 88], the pIC50 is 6.30 to 7.00.
Consider `O=C(c1ccc2c(n1)CCCC2)c1cn(Cc2cccc(Br)n2)c2ccccc2c1=O` [Example 89], for which the pIC50 was over 7.00.
As to `Cc1ccc(C(=O)c2cn(Cc3cccc(N)n3)c3ccccc3c2=O)nc1C` [Example 90], the pIC50 was over 7.00.
Regarding `Cc1cc(C(=O)c2cn(Cc3cccc(N)n3)c3ccccc3c2=O)cnc1C` [Example 91], the pIC50 was over 7.00.
Take `Cc1ccc(C(=O)c2cn(Cc3cccc(N(C)C)n3)c3ccccc3c2=O)cc1C` [Example 92]: the pIC50 is 4.70 to 6.30.
In the case of `CNc1cccc(Cn2cc(C(=O)c3ccc(C)c(C)c3)c(=O)c3ccccc32)n1` [Example 93], the pIC50 was over 7.00.
On to `Cc1cnc(C(=O)c2cn(Cc3cccc(Br)n3)c3ccccc3c2=O)cc1C` [Example 94], for which the pIC50 is over 7.00.
Regarding `Cc1ccc(C(=O)c2cn(Cc3ccccc3-c3cncnc3)c3ccccc3c2=O)cc1C` [Example 95], the pIC50 is 4.70 to 6.30.
For the compound `Cc1cccc(Cn2cc(C(=O)c3ccc(C)c(C)n3)c(=O)c3ccccc32)n1` [Example 96], the pIC50 was over 7.00.
In the case of `CN(C)c1cccc(C(=O)c2cn(Cc3cccc(Br)n3)c3ccccc3c2=O)c1` [Example 97] it was over 7.00.
For `COc1ccc(C(=O)c2cn(Cc3cccc(Br)n3)c3ccccc3c2=O)cc1C` [Example 98], the pIC50 is over 7.00.
To `CNc1cccc(Cn2cc(C(=O)c3cnc(C)c(C)c3)c(=O)c3ccccc32)n1` [Example 99] belongs 6.30 to 7.00.
Take `O=C(c1ccc(Cl)c(Cl)c1)c1cn(Cc2cccc(Br)n2)c2ccccc2c1=O` [Example 100]: the pIC50 was over 7.00.
For `Cc1ccc(C(=O)c2cn(Cc3cccc(Br)n3)c3ccccc3c2=O)c(C)c1` [Example 101], the pIC50 was over 7.00.
For the compound `Cc1ccc(C)c(C(=O)c2cn(Cc3cccc(Br)n3)c3ccccc3c2=O)c1` [Example 102], the pIC50 was over 7.00.
`Cc1cccc(C(=O)c2cn(Cc3cccc(Br)n3)c3ccccc3c2=O)c1C` [Example 103]: the pIC50 was over 7.00.
To `Cc1cc(C)cc(C(=O)c2cn(Cc3cccc(Br)n3)c3ccccc3c2=O)c1` [Example 104] belongs over 7.00.
For `Cc1ccc(C(=O)c2cn(Cc3cccc(Br)n3)c3cccnc3c2=O)cc1C` [Example 105], the pIC50 was over 7.00.
In the case of `Cc1ccc2c(=O)c(C(=O)c3ccc(C)c(C)c3)cn(Cc3cccc(Br)n3)c2n1` [Example 106], the pIC50 was over 7.00.
Regarding `Cc1cccc(Cn2cc(C(=O)c3ccc(C)c(C)c3)c(=O)c3ccc(C)nc32)n1` [Example 107], the pIC50 was over 7.00.
With `Cc1ccc(C(=O)c2cn(Cc3cccc(CCl)n3)c3ccccc3c2=O)cc1C` [Example 108], the pIC50 is over 7.00.
With `Cc1cc2c(=O)c(C(=O)c3ccc(C)c(C)c3)cn(Cc3cccc(Br)n3)c2c(C)n1` [Example 109], the pIC50 was 4.70 to 6.30.
As for `Cc1cc(C(=O)c2cn(Cc3cccc(NC4CC4)n3)c3ccccc3c2=O)cnc1C` [Example 110], the pIC50 was 4.70 to 6.30.
In the case of `COCc1cccc(Cn2cc(C(=O)c3ccc(C)c(C)c3)c(=O)c3ccccc32)n1` [Example 111] it was 6.30 to 7.00.
In the case of `Cc1cc(C(=O)c2cn(Cc3cccc(Br)n3)c3ccccc3c2=O)c[n+]([O-])c1C` [Example 112], the pIC50 is 6.30 to 7.00.
`O=C(c1ccc2c(c1)OCCO2)c1cn(Cc2cccc(Br)n2)c2ccccc2c1=O` [Example 113]: the pIC50 is over 7.00.
In the case of `CC(C)(C)c1ccc(C(=O)c2cn(Cc3cccc(Br)n3)c3ccccc3c2=O)cc1` [Example 114] it was over 7.00; in that of `CCc1ccc(C(=O)c2cn(Cc3cccc(Br)n3)c3ccccc3c2=O)cc1` [Example 115], over 7.00; in that of `Cc1ccc(C(=O)c2cn(Cc3cccc(Br)n3)c3c(C)ccnc3c2=O)cc1C` [Example 116], 4.70 to 6.30.
As for `CNCc1cccc(Cn2cc(C(=O)c3ccc(C)c(C)c3)c(=O)c3ccccc32)n1` [Example 117], the pIC50 was 4.70 to 6.30.
To `Cc1ccc(C(=O)c2cn(Cc3cccc(CN(C)C)n3)c3ccccc3c2=O)cc1C` [Example 118] belongs 4.70 to 6.30; to `Cc1ccc2c(n1)c(=O)c(C(=O)c1ccc(C)c(C)c1)cn2Cc1cccc(Br)n1` [Example 119], over 7.00; to `CN(C)c1ccc(C(=O)c2cn(Cc3cccc(Br)n3)c3ccccc3c2=O)cc1` [Example 120], over 7.00.
On to `Cc1ccccc1C(=O)c1cn(Cc2cccc(Br)n2)c2ccccc2c1=O` [Example 121], for which the pIC50 was over 7.00.
Regarding `Cc1cccc(C(=O)c2cn(Cc3cccc(Br)n3)c3ccccc3c2=O)n1` [Example 122], the pIC50 was 6.30 to 7.00.
`O=C(c1ccc(CN2CCOCC2)cc1)c1cn(Cc2cccc(Br)n2)c2ccccc2c1=O` [Example 123]: the pIC50 was 4.70 to 6.30.
Turning to `Cc1cccc(Cn2cc(C(=O)c3cnc(C)c(C)c3)c(=O)c3cc(F)ccc32)n1` [Example 124], the pIC50 was over 7.00.
As to `Cc1cc(C(=O)c2cn(Cc3cccc(CO)n3)c3ccccc3c2=O)cnc1C` [Example 125], the pIC50 is 6.30 to 7.00.
To `O=C(c1ccccc1C1OCCCO1)c1cn(Cc2cccc(Br)n2)c2ccccc2c1=O` [Example 126] belongs over 7.00.
With `COCCOc1ccc(C(=O)c2cn(Cc3cccc(Br)n3)c3ccccc3c2=O)cc1C` [Example 127], the pIC50 is 6.30 to 7.00.
Take `O=C(c1ncc(Br)cn1)c1cn(Cc2cccc(Br)n2)c2ccccc2c1=O` [Example 128]: the pIC50 was 4.70 to 6.30.
`CN(C)Cc1ccccc1C(=O)c1cn(Cc2cccc(Br)n2)c2ccccc2c1=O` [Example 129]: the pIC50 is over 7.00.
For `Cc1cccc(Cn2cc(C(=O)c3ccc(C)c(C)c3)c(=O)c3nc(C)ccc32)n1` [Example 130], the pIC50 is over 7.00.
To `O=C(c1ccc2c(c1)CCO2)c1cn(Cc2cccc(Br)n2)c2ccccc2c1=O` [Example 131] belongs over 7.00; to `CCOc1ccc(C(=O)c2cn(Cc3cccc(Br)n3)c3ccccc3c2=O)cc1C` [Example 132], over 7.00.
Turning to `O=C(c1ccc(C(F)(F)F)nc1)c1cn(Cc2cccc(Br)n2)c2ccccc2c1=O` [Example 133], the pIC50 is over 7.00.
Turning to `Cc1cccc(Cn2cc(C(=O)c3ccc(C)c(C)c3)c(=O)c3ncccc32)n1` [Example 134], the pIC50 was over 7.00.
With `O=C(c1cccc(C2OCCCO2)c1)c1cn(Cc2cccc(Br)n2)c2ccccc2c1=O` [Example 135], the pIC50 was 4.70 to 6.30.
Turning to `COc1ccc(C(=O)c2cn(Cc3cccc(Br)n3)c3ccccc3c2=O)cc1C1OCCCO1` [Example 136], the pIC50 is over 7.00.
Regarding `O=C(c1ccc(C2OCCCO2)cc1)c1cn(Cc2cccc(Br)n2)c2ccccc2c1=O` [Example 137], the pIC50 was 6.30 to 7.00.
For `O=C(O)c1ccccc1C(=O)c1cn(Cc2cccc(Br)n2)c2ccccc2c1=O` [Example 138], the pIC50 was over 7.00.
In the case of `O=C(c1cccc(C(F)(F)F)n1)c1cn(Cc2cccc(Br)n2)c2ccccc2c1=O` [Example 139], the pIC50 was 4.70 to 6.30.
With `COc1ccc(C(=O)c2cn(Cc3cccc(Br)n3)c3ccccc3c2=O)cc1OC` [Example 140], the pIC50 was over 7.00.
In the case of `COc1cccc(C(=O)c2cn(Cc3cccc(Br)n3)c3ccccc3c2=O)c1` [Example 141], the pIC50 is over 7.00.
Consider `Cc1ccc2c(=O)c(C(=O)c3ccc4c(c3)OCCO4)cn(Cc3cccc(Br)n3)c2n1` [Example 142], for which the pIC50 was over 7.00.
Turning to `COc1ccc(C(=O)c2cn(Cc3cccc(Br)n3)c3nc(C)ccc3c2=O)cc1C` [Example 143], the pIC50 was over 7.00.
On to `COc1ccc(C(=O)c2cn(Cc3cccc(Br)n3)c3ccccc3c2=O)cc1` [Example 144], for which the pIC50 is over 7.00.
In the case of `COc1ccc(C(=O)c2cn(Cc3cccc(Br)n3)c3ccccc3c2=O)cc1F` [Example 145] it was over 7.00; in that of `Cc1ccc2c(=O)c(C(=O)c3cnc(C)c(C)c3)cn(Cc3cccc(Br)n3)c2n1` [Example 146], 6.30 to 7.00.
With `Cc1nc(C(=O)c2cn(Cc3cccc(Br)n3)c3ccccc3c2=O)sc1C` [Example 147], the pIC50 was over 7.00.
As to `CC(C)c1ccc(C(=O)c2cn(Cc3cccc(Br)n3)c3ccccc3c2=O)cc1` [Example 148], the pIC50 was over 7.00.
To `Cc1cccnc1C(=O)c1cn(Cc2cccc(Br)n2)c2ccccc2c1=O` [Example 149] belongs 6.30 to 7.00.
To `Cc1ccnc(C(=O)c2cn(Cc3cccc(Br)n3)c3ccccc3c2=O)c1` [Example 150] belongs 6.30 to 7.00.
